pEC50: −log10 of the molar value. *1 amine or outer side, *2 acyl side, *3 side chain or, on linkers, in order; H or OH if unused. Where a SMILES comes first, the peptide text is derived from it. Bridges are numbered along the chain shown (N, C = ends). Roman numbers before positions name the chains, in order. [ ]: non-standard residue; d: D form. The star is where a group is joined. hNle(7-SH) = O=C([C@H](CCCCCS[*:3])N[*:1])[*:2]; X1 = CN(C)C(=O)c1cc(S*)ccc1[N+](=O)[O-]; Gly((CH2)5SH) = N[C@@H](CCCCCS)C(=O)O; Pip = O=C(O)[C@@H]1CCCCN1; dPip = O=C(O)[C@H]1CCCCN1
What was measured:
human HDAC1 = molecular target: T1, human HDAC1 (Homo sapiens, UniProt Q13547); experiment: In vitro HDAC inhibition activity, [3H]-acetylated histone substrate, HDAC1; assay type: biochemical
T1 construct: FLAG; made in house; host or cells: 293T cells (transient transfection, anti-FLAG immunoprecipitation, FLAG peptide elution)
T1 sequence (Q13547 whole entry): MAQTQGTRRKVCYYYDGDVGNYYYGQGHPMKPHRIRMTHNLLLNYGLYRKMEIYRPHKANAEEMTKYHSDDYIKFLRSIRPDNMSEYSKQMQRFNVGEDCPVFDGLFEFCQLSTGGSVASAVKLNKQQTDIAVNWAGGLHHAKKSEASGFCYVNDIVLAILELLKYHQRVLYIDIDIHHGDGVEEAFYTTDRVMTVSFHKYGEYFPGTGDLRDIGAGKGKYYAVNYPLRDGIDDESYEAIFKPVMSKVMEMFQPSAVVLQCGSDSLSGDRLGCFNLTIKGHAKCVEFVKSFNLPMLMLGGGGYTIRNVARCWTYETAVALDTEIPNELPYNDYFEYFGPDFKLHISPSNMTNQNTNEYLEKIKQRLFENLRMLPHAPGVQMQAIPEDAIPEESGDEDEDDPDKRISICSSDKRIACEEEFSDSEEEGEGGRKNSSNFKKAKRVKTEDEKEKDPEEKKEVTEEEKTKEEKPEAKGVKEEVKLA
Description: (§1) To measure HDAC inhibition activity, an HDAC solution was prepared as described below. 1×10^7 of 293T cells were plated on to a 100-mm dish and, after 24 hours, transfected with vectors (1 μg) expressing human HDAC1 and HDAC4 or mouse HDAC6, using LipofectAmine 2000 reagent (Life Technologies, Inc. Gaithersburg, Md.). […] The vectors were introduced for five hours in OPTI-MEM. The medium was then replaced with Dulbecco's modified Eagle's medium (DMEM), and incubated for 19 hours. The cells were washed with PBS, suspended in lysis buffer (50 mM Tris-HCl (pH7.5), 120 mM NaCl, 5 mM EDTA, and 0.5% Nonidet P-40), and sonicated. The supernatant was collected by centrifugation and nonspecific protein was removed using Protein A/G plus agarose beads (Santa Cruz Biotechnologies, Inc.). Anti-FLAG M2 antibodies (Sigma-Aldrich, Inc.) were added to the supernatant of cells expressing HDAC1 or HDAC4. Anti-HA antibodies (clone 3F10, Roche Molecular Biochemicals) were added to the supernatant of cells expressing HDAC6. Reaction in the respective mixtures was carried out at 4° C. for one hour. The resulting reaction mixtures were independently mixed with agarose beads and further reacted at 4° C. for one hour. The agarose beads were washed three times with lysis buffer and then washed once with HD buffer (20 mM Tris-HCl (pH8.0), 150 mM NaCl, 10% glycerol, and a complete protease inhibitor cocktail (Boehringer Mannheim, Germany)). […] The HDAC reaction solution was used for determining HDAC inhibition activity as shown below.
(§2) In vitro HDAC inhibition activity was evaluated as follows: A test compound was dissolved in DMSO and adjusted to 10 mM. This was used as an inhibitor stock solution. […] These reactions were stopped by adding 10 μl HCl. The [^3H] acetic acid excised by the enzyme reaction was extracted with ethyl acetate and subjected to radioactive dose measurement. As a negative control, the same procedure was carried out in which no inhibitor was added to the reaction system. The inhibition activity was expressed as a 50% inhibition concentration (“IC50 (nM)”) of the HDAC activity in the negative control (Tables 1 to 4).

human HDAC4 = molecular target: T2, human HDAC4 (Homo sapiens, UniProt P56524); experiment: In vitro HDAC inhibition activity, [3H]-acetylated histone substrate, HDAC4; assay type: biochemical
T2 construct: FLAG; made in house; host or cells: 293T cells (transient transfection, anti-FLAG immunoprecipitation, FLAG peptide elution)
T2 sequence (O15379 whole entry partner): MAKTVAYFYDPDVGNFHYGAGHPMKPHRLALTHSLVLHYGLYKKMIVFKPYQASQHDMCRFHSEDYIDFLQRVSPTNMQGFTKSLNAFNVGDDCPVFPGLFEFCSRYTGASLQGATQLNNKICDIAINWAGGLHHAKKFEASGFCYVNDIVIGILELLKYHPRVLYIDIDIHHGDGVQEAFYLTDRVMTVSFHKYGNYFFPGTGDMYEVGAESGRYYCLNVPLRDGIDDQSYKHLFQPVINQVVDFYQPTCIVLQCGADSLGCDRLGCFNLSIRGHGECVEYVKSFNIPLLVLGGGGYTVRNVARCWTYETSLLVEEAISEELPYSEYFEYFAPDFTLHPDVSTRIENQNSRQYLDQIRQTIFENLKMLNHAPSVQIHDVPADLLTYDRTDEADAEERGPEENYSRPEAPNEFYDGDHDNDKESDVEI
T2 sequence (P56524 whole entry): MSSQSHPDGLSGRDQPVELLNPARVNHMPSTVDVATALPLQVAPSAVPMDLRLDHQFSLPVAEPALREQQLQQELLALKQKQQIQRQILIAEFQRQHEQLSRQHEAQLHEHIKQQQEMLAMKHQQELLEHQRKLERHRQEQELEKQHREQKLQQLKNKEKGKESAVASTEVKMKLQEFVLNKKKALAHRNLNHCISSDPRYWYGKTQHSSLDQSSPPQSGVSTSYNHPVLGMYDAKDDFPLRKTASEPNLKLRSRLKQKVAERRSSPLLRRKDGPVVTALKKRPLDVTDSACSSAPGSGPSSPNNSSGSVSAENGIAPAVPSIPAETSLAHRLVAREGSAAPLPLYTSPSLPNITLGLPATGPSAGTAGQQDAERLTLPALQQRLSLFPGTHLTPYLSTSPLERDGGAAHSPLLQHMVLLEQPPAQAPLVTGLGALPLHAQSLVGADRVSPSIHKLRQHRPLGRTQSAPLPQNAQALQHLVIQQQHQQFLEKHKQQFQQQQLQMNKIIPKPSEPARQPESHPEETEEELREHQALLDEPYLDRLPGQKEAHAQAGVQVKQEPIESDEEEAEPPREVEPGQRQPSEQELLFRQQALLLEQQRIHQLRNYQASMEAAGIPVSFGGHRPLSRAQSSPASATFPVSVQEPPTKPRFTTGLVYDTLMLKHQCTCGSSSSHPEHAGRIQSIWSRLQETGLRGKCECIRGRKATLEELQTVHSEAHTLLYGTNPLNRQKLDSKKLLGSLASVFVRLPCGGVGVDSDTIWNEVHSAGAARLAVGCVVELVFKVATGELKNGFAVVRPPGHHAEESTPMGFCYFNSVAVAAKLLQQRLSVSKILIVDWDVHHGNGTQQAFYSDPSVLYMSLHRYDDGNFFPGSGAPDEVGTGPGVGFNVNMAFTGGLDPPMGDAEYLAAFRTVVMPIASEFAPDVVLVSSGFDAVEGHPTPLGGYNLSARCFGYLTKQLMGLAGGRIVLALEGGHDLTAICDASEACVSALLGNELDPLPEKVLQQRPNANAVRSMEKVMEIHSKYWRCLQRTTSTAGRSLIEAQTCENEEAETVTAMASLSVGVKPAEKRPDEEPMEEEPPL
Description: as §1, §2

mouse HDAC6 = molecular target: T3, mouse HDAC6 (Mus musculus, UniProt Q9Z2V5); experiment: In vitro HDAC inhibition activity, [3H]-acetylated histone substrate, HDAC6; assay type: biochemical
T3 construct: HA; made in house; host or cells: 293T cells (transient transfection, anti-HA immunoprecipitation, HA peptide elution)
T3 sequence (Q9Z2V5 1-1149): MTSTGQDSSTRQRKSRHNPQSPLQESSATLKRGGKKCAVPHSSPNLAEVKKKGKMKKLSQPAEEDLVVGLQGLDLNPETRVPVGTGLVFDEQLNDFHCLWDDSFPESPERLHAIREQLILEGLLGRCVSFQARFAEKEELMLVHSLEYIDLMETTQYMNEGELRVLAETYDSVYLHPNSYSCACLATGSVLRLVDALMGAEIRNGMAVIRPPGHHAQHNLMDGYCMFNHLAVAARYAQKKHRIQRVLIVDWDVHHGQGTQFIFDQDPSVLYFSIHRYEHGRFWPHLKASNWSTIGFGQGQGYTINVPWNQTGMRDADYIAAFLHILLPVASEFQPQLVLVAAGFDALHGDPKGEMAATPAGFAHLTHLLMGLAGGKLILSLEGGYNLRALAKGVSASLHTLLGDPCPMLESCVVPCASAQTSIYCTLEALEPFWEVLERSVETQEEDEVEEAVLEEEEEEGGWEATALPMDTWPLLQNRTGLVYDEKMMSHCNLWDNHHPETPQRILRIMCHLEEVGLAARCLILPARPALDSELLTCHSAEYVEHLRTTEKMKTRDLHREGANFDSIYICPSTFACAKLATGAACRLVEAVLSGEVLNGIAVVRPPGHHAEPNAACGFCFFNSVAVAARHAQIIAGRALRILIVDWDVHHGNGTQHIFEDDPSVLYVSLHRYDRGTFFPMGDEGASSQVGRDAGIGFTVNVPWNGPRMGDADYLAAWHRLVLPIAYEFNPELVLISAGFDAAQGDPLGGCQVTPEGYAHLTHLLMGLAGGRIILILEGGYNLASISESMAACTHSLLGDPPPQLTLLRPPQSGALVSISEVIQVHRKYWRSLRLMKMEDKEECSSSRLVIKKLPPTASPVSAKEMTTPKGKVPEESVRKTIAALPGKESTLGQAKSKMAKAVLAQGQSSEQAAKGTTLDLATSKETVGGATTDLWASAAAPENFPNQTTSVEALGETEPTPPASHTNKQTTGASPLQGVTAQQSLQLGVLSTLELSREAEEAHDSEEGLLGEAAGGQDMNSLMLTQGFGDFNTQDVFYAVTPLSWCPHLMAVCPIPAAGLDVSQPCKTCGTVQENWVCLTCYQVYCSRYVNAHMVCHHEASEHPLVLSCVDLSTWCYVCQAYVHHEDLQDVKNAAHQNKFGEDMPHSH
Description: as §1, §2

[1] = tested on: human wild-type p21 promoter; experiment: p21 promoter-inducing activity (luciferase) in MFLL-9 cells; assay type: cell-based
Description: The HDAC inhibition activity in vivo was measured using p21 promoter-inducing activity as an index, as shown below. The MFLL-9 cells employed for the experiments stably maintained fusion genes of human wild-type p21 promoter and luciferase (Dr. B. Vogelstaein). Using phenol red-free DMEM medium comprising 10% FBS, cultivation was carried out in a steam-saturated incubator at 37° C. with 5% carbon dioxide. The MFLL-9 cells were plated at a density of 85,000 cells/well on a 96-well microtiter plate, each in 99 μl of the above-mentioned medium. These were then cultivated for six hours. One μl of test compound solution was added to each well, which was then cultured for another 18 hours.
The intensity of luminescence caused by the product of the enzyme reaction for intracellular luciferase expression was measured using Luc Lite (Packard BioScience Company). A group in which test compounds were not added was used as a negative control group. The values measured for this group were used as a standard. The activities for each concentration of added test compound were expressed relative to the above-mentioned standard value, 1.

[2] = Table 1, X = H (coexisting with DTT)
[3] = Table 1, X = H (coexisting with DTT), 50% of maximum active value for TSA
[4] = Table 3, hybrid with DTT (/DTT)

SMILES | IC50 (human HDAC1; Table 2, homodimer) [nM] | IC50 (human HDAC4; Table 2, homodimer) [nM] | IC50 (mouse HDAC6; Table 2, homodimer) [nM] | IC50 (human HDAC1; [2]) [nM] | IC50 (human HDAC4; [2]) [nM] | IC50 (mouse HDAC6; [2]) [nM] | pEC50 [1, 3] | pEC50 ([1]; Table 2, homodimer) | other results
CC[C@H](C)[C@@H]1NC(=O)[C@@H](Cc2ccc(OC)cc2)NC(=O)[C@H](CCCCCCSSCCCCCC[C@@H]2NC(=O)[C@H]3CCCN3C(=O)[C@H]([C@@H](C)CC)NC(=O)[C@@H](Cc3ccc(OC)cc3)NC2=O)NC(=O)[C@H]2CCCN2C1=O [SCOP 306, cyclo(-L-Am8(-)-D-Tyr(Me)-L-Ile-D-Pro-] | 153 | 319 | 1.32e+06 | – | – | – | – | – | –
CC[C@H](C)[C@@H]1NC(=O)[C@@H](Cc2ccc(OC)cc2)NC(=O)[C@H](CCCCCS)NC(=O)[C@@H]2CCCN2C1=O [SCOP 148] (cyclo([Gly((CH2)5SH)][dY](Me)IP)) | – | – | – | 81.4 | 17 | > 500000 | 5.17 | – | –
CC[C@H](C)[C@@H]1NC(=O)[C@@H](Cc2ccc(OC)cc2)NC(=O)[C@H](CCCCCCCS)NC(=O)[C@H]2CCCN2C1=O [SCOP 154] | – | – | – | 38.1 | 99.2 | 2470 | 4.50 | – | –
CC[C@H](C)[C@@H]1NC(=O)[C@@H](Cc2ccc(OC)cc2)NC(=O)[C@H](CCCCCS)NC(=O)[C@@H]2CCCCN2C1=O [SCOP 149] (cyclo([Gly((CH2)5SH)][dY](Me)I[Pip])) | – | – | – | 2.37 | 5.22 | 44300 | 6.22 | – | –
CC[C@H](C)[C@@H]1NC(=O)[C@@H](Cc2ccc(OC)cc2)NC(=O)[C@H](CCCCCSSCCCCC[C@@H]2NC(=O)[C@H]3CCCCN3C(=O)[C@H]([C@@H](C)CC)NC(=O)[C@@H](Cc3ccc(OC)cc3)NC2=O)NC(=O)[C@H]2CCCCN2C1=O [SCOP 300, cyclo(-L-Am7(-)-D-Tyr(Me)-L-Ile-D-Pip-] (I: cyclo([hNle(7-SH)][dY](Me)I[dPip]) / II: cyclo([hNle(7-SH)][dY](Me)I[dPip]); disulfide I:1-II:1) | 61.1 | 36.2 | 255000 | – | – | – | – | 5.13 | –
CC[C@H](C)[C@@H]1NC(=O)[C@@H](Cc2ccc(OC)cc2)NC(=O)[C@H](CCCCS)NC(=O)[C@H]2CCCN2C1=O [SCOP 151] | – | – | – | 932 | 7340 | 28500 | < 4.00 | – | –
CC[C@H](C)[C@@H]1NC(=O)[C@@H](Cc2ccc(OC)cc2)NC(=O)[C@H](CCCCCS)NC(=O)[C@H]2CCCCN2C1=O [SCOP 150] (cyclo([Gly((CH2)5SH)][dY](Me)I[dPip])) | – | – | – | 2.1 | 4.26 | 5560 | 6.30 | – | –
CC[C@H](C)[C@@H]1NC(=O)[C@@H](Cc2ccc(OC)cc2)NC(=O)[C@H](CCCCCCCSSCCCCCCC[C@@H]2NC(=O)[C@H]3CCCN3C(=O)[C@H]([C@@H](C)CC)NC(=O)[C@@H](Cc3ccc(OC)cc3)NC2=O)NC(=O)[C@H]2CCCN2C1=O [SCOP 308, cyclo(-L-Am9(-)-D-Tyr(Me)-L-Ile-D-Pro-] | 983 | 505 | 745000 | – | – | – | – | 3.63 | –
CC[C@H](C)[C@@H]1NC(=O)[C@@H](Cc2ccc(OC)cc2)NC(=O)[C@H](CCCCSSCCCC[C@@H]2NC(=O)[C@H]3CCCN3C(=O)[C@H]([C@@H](C)CC)NC(=O)[C@@H](Cc3ccc(OC)cc3)NC2=O)NC(=O)[C@H]2CCCN2C1=O [SCOP 302, cyclo(-L-Am6(-)-D-Tyr(Me)-L-Ile-D-Pro-] | 7200 | > 500000 | > 500000 | – | – | – | – | < 4.00 | –
CC[C@H](C)[C@@H]1NC(=O)[C@@H](Cc2ccc(OC)cc2)NC(=O)[C@H](CCCCCSSCCCCC[C@@H]2NC(=O)[C@@H]3CCCN3C(=O)[C@H]([C@@H](C)CC)NC(=O)[C@@H](Cc3ccc(OC)cc3)NC2=O)NC(=O)[C@@H]2CCCN2C1=O [SCOP 296, cyclo(-L-Am7(-)-D-Tyr(Me)-L-Ile-L-Pro-)] (I: cyclo([hNle(7-SH)][dY](Me)IP) / II: cyclo([hNle(7-SH)][dY](Me)IP); disulfide I:1-II:1) | 763 | 222 | > 500000 | – | – | – | – | 5.11 | –
CC[C@H](C)[C@@H]1NC(=O)[C@@H](Cc2ccc(OC)cc2)NC(=O)[C@H](CCCCCSSCCCCC[C@@H]2NC(=O)[C@@H]3CCCCN3C(=O)[C@H]([C@@H](C)CC)NC(=O)[C@@H](Cc3ccc(OC)cc3)NC2=O)NC(=O)[C@@H]2CCCCN2C1=O [SCOP 298, cyclo(-L-Am7(-)-D-Tyr(Me)-L-Ile-L-Pip-] (I: cyclo([hNle(7-SH)][dY](Me)I[Pip]) / II: cyclo([hNle(7-SH)][dY](Me)I[Pip]); disulfide I:1-II:1) | 114 | 33.7 | 418000 | – | – | – | – | 5.24 | –
CC[C@H](C)[C@@H]1NC(=O)[C@@H](Cc2ccc(OC)cc2)NC(=O)[C@H](CCCCCSSc2ccc([N+](=O)[O-])c(C(=O)N(C)C)c2)NC(=O)[C@H]2CCCN2C1=O [SCOP 403, cyclo(-L-Am7(SEll)-D-Tyr(Me)-L-Ile-D-Pro-)] (cyclo([hNle(7-SH)](X1)[dY](Me)I[dP])) | – | – | – | – | – | – | – | – | IC50 (human HDAC1; [4]): 1.15 nM; IC50 (human HDAC1; Table 3, hybrid, without DTT): 21.5 nM; IC50 (human HDAC4; [4]): 1.53 nM; IC50 (human HDAC4; Table 3, hybrid, without DTT): 18.9 nM; IC50 (mouse HDAC6; [4]): 4730 nM; IC50 (mouse HDAC6; Table 3, hybrid, without DTT): 6080 nM; pEC50 [1, 4]: 6.13; pEC50 ([1]; Table 3, hybrid, without DTT): 5.74

Source: patent US7488712B2, “Histone deacetylase inhibitors and methods for producing the same” (Kyushu Institute of Technology, priority 2002, dated 2009)
